Measurements taken from patent US10780094B2, “Use of carbonic anhydrase inhibitors for treatment of neurological and psychiatric disorders” (New York University, priority 2016, dated 2020).

Tests used:
TgSwDI mice = assay type: in vivo; settings: given with diet
Description: The grip strength test was used to measure neuromuscular function and specifically assesses maximal muscle/grip force of the forelimbs (only) or both the fore and hind limbs combined. Motor performance was assessed by the horizontal grasping force applied by the rodent to a specialized stainless steel grid that is connected to a sensitive, electronic force sensor (Bioseb In Vivo Research Instruments). […] With the base of the tail held gently but firmly between thumb and forefinger, the mouse was pulled gently back away from the grid, ensuring that the torso remains horizontal, until the animal loses grip of the grid. For combined fore and hindlimb measurement, the procedure was identical to the forelimb-only procedure except that mouse was lowered to allow both fore and hind paws to attach to the grid before any measurements were taken. […]
To ensure maximal reliability, each measurement of interest (e.g., forelimb or combined) was repeated consecutively for each mouse to obtain 5-6 replicates. […] A truncated mean (mean of replicates after the smallest and largest readings were removed) was calculated for each subject. […]
Mice in each treatment group (WT, Tg, Tg+MTZ, Tg+ATZ) were counted before the beginning of the treatment, at month 2, and at sacrifice (month 16). […]

[1] = test system: cerebral microvascular endothelial cells (D3); assay: Aβ-induced mitochondrial Cytochrome C release; assay type: cell-based, human; settings: Example 3
Description: Both EC and SH-SY5Y cells were plated on to glass chamber slides (Thermo Fisher Scientific), pre-coated with either collagen-I or poly-d-lysine (for ECs and SH-SY5Y cells respectively). After seeding, cells were allowed to attach for 1 day before treatment with the different peptides for 1-3 days, as above. Cells were washed with ice-cold PBS, fixed with 4% paraformaldehyde (10 min at room temperature) and blocked for 1 h with 20 mg/ml BSA in PBST (PBS containing 0.3% Triton X-100). Slides were further incubated with mouse anti-CytC monoclonal antibody (BD Biosciences; 1:200 dilution in PBST containing 5 mg/ml BSA; 2 h at room temperature) followed by Alexa Fluor® 488-conjugated anti-(mouse IgG) antibody (Invitrogen; 1:200 in PBST with 5 mg/ml BSA; 1 h at room temperature). Fluorescence signals were visualized in a Nikon Eclipse E 800 deconvolution microscope using NIS Elements software (Nikon Instruments) for image acquisition and processing, and AutoQuant (Media Cybernetics) for 3D deconvolution. The effect of methazolamide in preventing the Aβ-induced release of CytC from the mitochondria into the cytoplasm was evaluated in EC and SH-SY5Y cultures. […]

Normal Human Astrocytes = assay: Cell Death ELISAplus, Aβ-induced apoptosis (fragmented nucleosomes); assay type: cell-based; settings: 1 day
Description: The extent of apoptosis caused by Aβ in the presence or absence of MTZ was assessed by quantitation of nucleosome formation using Cell Death ELISA^plus (Roche Applied Science, Indianapolis, Ind.). Briefly, after incubation with the peptides, plates were centrifuged in a Beckman J-6B centrifuge (10 min; 1,000 rpm), cells lysed, and DNA-histone complexes (nucleosomes) quantitated by Cell Death ELISA, as previously described (Fossati et al., 2010).

Glioma cells = assay: Cellular ROS (CellROX); assay type: cell-based, human; settings: Aβ42 in the presence or absence of MTZ; 24 hours
Description: For the last 30 minutes, the cells were incubated in the experimental medium at 37° C. with 5 μM CellROX Deep Red (Life Technologies) and 1 μg/ml Hoechst Stain (Immunochemistry Technologies, Bloomington, Minn.), as described by the manufacturer, followed by washes. Fluorescence was measured using a FlexStation 3 Multi-Mode Microplate Reader (Molecular Devices, Sunnyvale, Calif.).

Aβ42 and Aβ40-Q22 = molecular target: T1, Aβ42 and Aβ40-Q22 (Homo sapiens, UniProt P05067, E693Q); assay: Native gel electrophoresis and Western blot of Aβ aggregation species; settings: presence or absence of the CAI; 1 hour, 1 day, 3 days
T1 construct: purchased James I. Elliott at Yale University (custom chemical peptide synthesis)
Description: Electrophoretic analysis for assessment of peptide aggregation in the presence or absence of MTZ was performed under native conditions using 5-30% gradient polyacrylamide gels, in absence of SDS, using 25 mM Tris/glycine, pH 8.8, as running buffer, as previously described (Fossati et al., 2010). Aβ oligomerization patterns were visualized by subsequent WB analysis. Briefly, proteins were electrotransferred to nitrocellulose membranes ([…] pore size; Hybond-ECL, GE Healthcare Life Sciences, Piscataway, N.J.) at 400 mA for 2.5 h, using 10 mM 3-cyclohexylamino-1-propanesulfonic acid (CAPS; Sigma) buffer, pH 11.0, containing 10% (v/v) methanol. After blocking with 5% nonfat milk in TBS containing 0.1% Tween 20 (TBST), membranes were immunoreacted with a combination of mouse monoclonal anti-Aβ antibodies 4G8 (epitope: residues Aβ18-22) and 6E10 (epitope: residues Aβ3-8), both from Covance (Princeton, N.J.), at 1:3000 dilution each, followed by HRP-labeled anti-mouse IgG and ECL chemistry (Fossati et al., 2010).

[2] = Wright et al., 2008; cited from earlier work

| Compound | signs of toxicity, weight loss or death (TgSwDI mice) | CytC localization (immunocytochemistry) ([1]; Aβ40-Q22 25 μM or Aβ40/42 WT 10 μM, 24 h) | release of CytC, cells with diffuse green staining as % of total cells ([1]; FIG. 23B) | DNA fragmentation after Aβ challenge (Normal Human Astrocytes; 100 μM MTZ) | Aβ-mediated increase in fragmented nucleosomes (Normal Human Astrocytes; 300 μM MTZ, Aβ42 10 μM) | levels of cellular ROS (CellROX) (Glioma cells) | Aβ aggregation species in native gels (Aβ42 and Aβ40-Q22) | well tolerated daily dose in humans [2] [mg] |
| --- | --- | --- | --- | --- | --- | --- | --- | --- |
| CC(=O)/N=c1/sc(S(N)(=O)=O)nn1C [MTZ, methazolamide] | without showing signs of toxicity, weight loss or increased death of the animals | retained in the mitochondria | prevented | significantly effective at reducing DNA fragmentation | completely prevented | did not significantly change | did not differ |  |
| CC(=O)Nc1nnc(S(N)(=O)=O)s1 [ATZ, acetazolamide] | without showing signs of toxicity, weight loss or increased death of the animals |  |  |  |  |  |  | ≤ 1000 |
